Results as given in article PMC10458698, “Characterization of the interferences of systemic azole antifungal drugs with adrenal steroid biosynthesis using H295R cells and enzyme activity assays” (Current Research in Toxicology, 2023).
pIC50: −log10 of the molar value. Like-named read-outs stand apart in the source and are kept apart here.

Columns and labels:
CYP11B1 = test system: CYP11B1; parameters: method as in Beck et al., 2020a; details: ref Beck et al., 2020a; cited from earlier work
CYP17A1 17,20-lyase = target: T1, CYP17A1 17,20-lyase (Homo sapiens, UniProt P05093); experiment: CYP17A1 17,20-lyase activity assay, microsomes of transfected COS-1 cells; assay type: biochemical; details: for pIC50: 17α-hydroxypregnenolone 500 nM, 1 h; for lower inhibitory potency against 17,20-lyase than posaconazole: relative to posaconazole
T1 construct: expressed in transfected cells; host or cells: COS-1 cells, transient transfection, microsomal fraction
T1 sequence (P05093 1-508): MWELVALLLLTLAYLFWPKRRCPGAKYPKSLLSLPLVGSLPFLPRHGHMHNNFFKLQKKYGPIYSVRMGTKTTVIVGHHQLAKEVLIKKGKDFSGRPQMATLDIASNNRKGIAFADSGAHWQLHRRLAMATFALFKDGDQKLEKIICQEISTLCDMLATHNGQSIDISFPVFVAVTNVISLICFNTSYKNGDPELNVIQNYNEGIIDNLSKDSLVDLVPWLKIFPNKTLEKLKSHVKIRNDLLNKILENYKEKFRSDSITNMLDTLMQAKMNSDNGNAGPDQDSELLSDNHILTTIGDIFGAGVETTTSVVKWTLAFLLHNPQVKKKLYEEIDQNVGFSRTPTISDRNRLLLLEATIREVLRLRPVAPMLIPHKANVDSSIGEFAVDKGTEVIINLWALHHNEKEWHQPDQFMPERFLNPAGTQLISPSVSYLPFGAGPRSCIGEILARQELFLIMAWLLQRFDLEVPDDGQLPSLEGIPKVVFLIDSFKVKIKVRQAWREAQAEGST
Description: (§1) Microsomes were prepared from COS-1 cells transiently transfected with plasmids for either CYP17A1 and POR for CYP17A1-hydroxylase assay (human CYP17A1 was available in our own plasmid collection after cloning into pcDNA3, POR was ordered from Genescript, Piscataway, USA, clone ID OHu25584C), CYP17A1, POR and cytochrome b5 for CYP17A1 17,20-lyase assay (cytochrome b5 was from Genescript, clone ID OHu09495D), POR and CYP21A2 (Genescript, CYP21A2 clone ID OHu18602D), or 3β-HSD2 (Genescript, clone ID OHu14034D). Transfection was performed using PEI and equal amounts of required plasmids with a total DNA amount of 8 µg per transfection of 3,000,000 cells. After overnight incubation, cells were washed with prewarmed PBS before adding ice-cold PBS. Cells were collected and centrifuged at 600 × g for 4 min at 4 °C, washed with ice cold PBS and centrifuged again. The pellet was resuspended in a resuspension buffer (20 mM Tris, pH 7.5, 50 mM KCl, 2 mM MgCl2, 0.25 M sucrose). Cells were disrupted with 30 S by a glass potter (2 cm^3) as described above. The homogenate was centrifuged for 20 min at 12,000 × g and 4 °C. Microsomes were pelleted by ultracentrifugation at 100,000 × g for 1 h at 4 °C. The pellet was resuspended in reaction buffer and the protein concentration determined using the Pierce Protein BCA kit as described above.
Microsomes, 250 µg/mL, expressing CYP17A1, POR and cytochrome b5 were incubated in reaction buffer for 10 min with 1 mM NADPH and the azole antifungals. The reaction was started by adding 500 nM 17α-hydroxypregnenolone in a total reaction volume of 50 µL. After 1 h of incubation at 37 °C, the reaction was stopped adding 50 µL methanol. Samples were evaporated to dryness, reconstituted in 6 µL methanol, diluted 1:25 in water and the DHEA concentration was quantified using an ELISA kit (DEH3344, Demeditec, Kiel, Germany). Absorbance was measured using a BioTek Citation5 imaging reader.

[1] = parameters: method as in earlier work; details: ref Zhang et al., 2018, Märtson et al., 2019, Vena et al., 2020, Risum et al., 2021, cited from earlier work
CYP21A2 = target: T2, CYP21A2 (Homo sapiens, UniProt P08686); experiment: CYP21A2 activity assay, microsomes of transfected COS-1 cells; assay type: biochemical; details: cell-free; for pIC50: progesterone 500 nM, 10 min
T2 construct: host or cells: COS-1 cells, transient transfection, microsomal fraction
T2 sequence (P08686 1-495): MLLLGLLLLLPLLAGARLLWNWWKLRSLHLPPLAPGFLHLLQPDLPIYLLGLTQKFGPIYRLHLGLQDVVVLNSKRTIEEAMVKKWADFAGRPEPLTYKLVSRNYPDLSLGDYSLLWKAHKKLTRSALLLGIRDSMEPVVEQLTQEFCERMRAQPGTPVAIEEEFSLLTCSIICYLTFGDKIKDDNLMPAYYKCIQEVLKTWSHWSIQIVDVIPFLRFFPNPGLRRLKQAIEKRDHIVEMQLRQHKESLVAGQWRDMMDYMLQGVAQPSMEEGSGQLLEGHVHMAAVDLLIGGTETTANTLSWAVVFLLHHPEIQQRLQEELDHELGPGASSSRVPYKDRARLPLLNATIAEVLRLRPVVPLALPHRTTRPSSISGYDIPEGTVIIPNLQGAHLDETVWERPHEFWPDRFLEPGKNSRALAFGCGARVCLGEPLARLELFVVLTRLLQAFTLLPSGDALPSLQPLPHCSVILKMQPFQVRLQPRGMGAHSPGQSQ
Description: as §1
(§2) Microsomal protein (250 µg/mL) was preincubated with 1 mM NADPH and the compound of interest in reaction buffer for 10 min. The reaction was started by adding progesterone spiked with a radioactive tracer (final activity 0.025 mCi) to a final concentration of 500 nM. After 10 min of incubation at 37 °C the reaction was stopped by adding enzyme substrate and product at a final concentration of 1 mM in methanol, followed by shock-freezing in liquid nitrogen. Steroids were separated by thin layer chromatography on SIL G-25 UV254 TLC plates (Macherey-Nagel, Düren, Germany) using chloroform and ethyl acetate (1:4; v:v). Bands were excised and radiolabeled steroids analyzed by scintillation counting using […] Plus cocktail (Zinsser Analytic, Frankfurt am Main, Germany) and a β-counter (Packard, Connecticut, USA). Relative conversion was calculated based on total counts.

CYP17A1 17α-hydroxylase = target: T3, CYP17A1 17α-hydroxylase (Homo sapiens, UniProt P05093); experiment: CYP17A1 17α-hydroxylase activity assay, microsomes of transfected COS-1 cells; assay type: biochemical; details: cell-free; for inhibition of CYP17A1 17α-hydroxylase: in words; for pIC50: progesterone 500 nM, 10 min, read-out: IC50 CYP17A1 17α-hydroxylase mean
T3 construct: expressed in transfected cells; host or cells: COS-1 cells, transient transfection, microsomal fraction
T3 sequence (P05093 1-508): T1 sequence (P05093 1-508)
Description: as §1, §2

CC[C@@H]([C@H](C)O)n1ncn(-c2ccc(N3CCN(c4ccc(OC[C@@H]5CO[C@@](Cn6cncn6)(c6ccc(F)cc6F)C5)cc4)CC3)cc2)c1=O [posaconazole, Posaconazole]
pIC50 (CYP11B1): 7.22 | pIC50 (CYP17A1 17,20-lyase; cell-free): 6.55 | inhibition of CYP17A1 17,20-lyase (CYP17A1 17,20-lyase; cell-free, in words): potently inhibited | preference for 17,20-lyase over the 17α-hydroxylase activity (CYP17A1 17,20-lyase; ratio of IC50 values): four-fold preference | serum trough concentration [1]: > 0.7 µg/mL | pIC50 (CYP21A2): < 5.00 | inhibition of CYP17A1 17α-hydroxylase (CYP17A1 17α-hydroxylase): moderately inhibited | pIC50 (CYP17A1 17α-hydroxylase): 5.95

C[C@@H](c1nc(-c2ccc(C#N)cc2)cs1)[C@](O)(Cn1cncn1)c1cc(F)ccc1F [isavuconazole]
pIC50 (CYP11B1): 5.52 | pIC50 (CYP17A1 17,20-lyase; cell-free): 5.24 | lower inhibitory potency against 17,20-lyase than posaconazole (CYP17A1 17,20-lyase): 20 times | serum trough concentration ([1]; molar value in brackets): ~1 µM | serum trough concentration [1]: 4 µg/mL | inhibition of CYP21A2 (CYP21A2; in words): weak inhibition | pIC50 (CYP21A2): 5.09 | inhibition of CYP17A1 17α-hydroxylase (CYP17A1 17α-hydroxylase): very weakly | pIC50 (CYP17A1 17α-hydroxylase): < 5.00

CCC(C)n1ncn(-c2ccc(N3CCN(c4ccc(OCC5COC(Cn6cncn6)(c6ccc(Cl)cc6Cl)O5)cc4)CC3)cc2)c1=O (centres unmarked) [itraconazole]
pIC50 (CYP11B1): 6.36 | pIC50 (CYP17A1 17,20-lyase; cell-free): 5.24 | lower inhibitory potency against 17,20-lyase than posaconazole (CYP17A1 17,20-lyase): 20 times | serum trough concentration [1]: 0.5 to 1 µg/mL | pIC50 (CYP21A2): < 5.00 | pIC50 (CYP17A1 17α-hydroxylase): < 5.00
